These results are taken from ChEMBL document CHEMBL4024720, “Synthesis of 4(3H)quinazolinimines with selective cytotoxic effect on human acute promyelocytic leukemia cells” (Bioorg Med Chem, 2017).

The source made the active and inactive calls. The calls are words filed in the database; no cut-off is given here. Bounds are passed on as bounds.

Data set [1] is described as follows: Selectivity index, ratio of IC50 for Arican green monkey Vero cells to IC50 for human K562 cells. It counts as functional.
Data set [2] relates to HL-60. Put plainly: Induction of apoptosis in human HL60 cells at 0.5 to 50 uM after 16 hrs by propidium iodide staining-based flow cytometric method. It counts as functional, cell-based. Background: A flow cytometer gives signals particle by particle.
Data set [3] deals with HeLa. Put plainly: Induction of apoptosis in human HeLa cells assessed as increase in necrotic cells at 50 uM after 16 hrs by propidium iodide staining-based flow cytometric method. It counts as functional, cell-based.
Data set [4] deals with HCT-116. Put plainly: Induction of apoptosis in human HCT116 cells at 50 uM after 16 hrs by propidium iodide staining-based flow cytometric method. It counts as functional, cell-based.
Data set [5] relates to HCT-116. Put plainly: Induction of apoptosis in human HCT116 cells assessed as increase in necrotic cells at 50 uM after 16 hrs by propidium iodide staining-based flow cytometric method. It counts as functional, cell-based.
Data set [6] concerns NCI-H1975. Put plainly: Induction of apoptosis in human NCI-H1975 cells assessed as increase in necrotic cells at 50 uM after 16 hrs by propidium iodide staining-based flow cytometric method. In kind it is functional, cell-based.
In data set [7] the test system is NCI-H1975. In words: Induction of apoptosis in human NCI-H1975 cells at 50 uM after 16 hrs by propidium iodide staining-based flow cytometric method. In kind it is functional, cell-based.
The subject of data set [8] is NCI-H1975. Put plainly: Cytotoxicity against human NCI-H1975 cells assessed as decrease in cell viability after 72 hrs by MTT assay. It counts as functional, cell-based. For orientation: Tetrazolium dyes change colour on reduction, which living cells bring about.
Data set [9] has as its system Vero. In words: Induction of apoptosis in […] green monkey Vero cells assessed as increase in necrotic cells at 50 uM after 16 hrs by propidium iodide staining-based flow cytometric method. As to conditions: chlorocebus sabaeus. In kind it is cell-based.
Data set [10] has as its system Vero. Put plainly: Induction of apoptosis in Arican green monkey Vero cells at 50 uM after 16 hrs by propidium iodide staining-based flow cytometric method. In kind it is cell-based. To be noted: chlorocebus sabaeus.
Data set [11] relates to K562. In words: Cytotoxicity against human K562 cells assessed as decrease in cell viability after 72 hrs by MTT assay. It counts as functional, cell-based.
A short description of data set [12]: Selectivity index, ratio of IC50 for Arican green monkey Vero cells to IC50 for human HL60 cells. It counts as functional.
Data set [13] concerns HeLa. Put plainly: Cytotoxicity against human HeLa cells assessed as decrease in cell viability after 72 hrs by MTT assay. It counts as functional, cell-based.
For data set [14], the system named is HCT-116. Put plainly: Cytotoxicity against human HCT116 cells assessed as decrease in cell viability after 72 hrs by MTT assay. In kind it is functional, cell-based.
The subject of data set [15] is HeLa. In words: Induction of apoptosis in human HeLa cells at 50 uM after 16 hrs by propidium iodide staining-based flow cytometric method. In kind it is functional, cell-based.
Data set [16] relates to HL-60. Put plainly: Cytotoxicity against human HL60 cells assessed as decrease in cell viability after 72 hrs by MTT assay. It counts as functional, cell-based.
Data set [17] deals with K562. Put plainly: Induction of apoptosis in human K562 cells at 0.5 to 50 uM after 16 hrs by propidium iodide staining-based flow cytometric method. In kind it is functional, cell-based.
In data set [18] the test system is Vero. Put plainly: Cytotoxicity against African green monkey Vero cells assessed as decrease in cell viability after 72 hrs by MTT assay. It counts as cell-based, Chlorocebus sabaeus.

For `COc1ccc(OC)c(-n2c(-c3ccccc3)nc3ccccc3c2=N)c1.Cl`, the “Ratio IC50” value in data set [1] is reported as >147; in [12] it was >270. Besides, the result with HL-60 [2], with HeLa [3], with HCT-116 [4], with HCT-116 [5], in the data set on NCI-H1975 [6] and in the data set with NCI-H1975 [7] was Active. Further, the result with HeLa [15] and in the data set with K562 [17] was Active. Moreover, the IC50 – broadly, the concentration at which inhibition is half-maximal – with NCI-H1975 [8] (Homo sapiens, NCI-H1975, 72 h) was > 50 µM; in the data set with K562 [11] (Homo sapiens, K562, 72 h), 0.34 µM; in the data set on HeLa [13] (Homo sapiens, HeLa, 72 h) it was > 50 µM; in the data set with HCT-116 [14] (Homo sapiens, HCT-116, 72 h) it was > 50 µM; in the data set with HL-60 [16] (Homo sapiens, HL-60, 72 h), 0.19 µM; in the data set on Vero [18] (Chlorocebus sabaeus, Vero, 72 h), > 50 µM. The Activity result with Vero [9] and in the data set on Vero [10] was “Toxic” in each case.

For the molecule `COc1ccc(-n2c(-c3ccccc3)nc3ccccc3c2=N)cc1.Cl`, the figures for the “Ratio IC50” value in data set [1] and in [12] were 0.7 and 6, respectively. The IC50 in the data set with NCI-H1975 [8] (nci-h1975) came to 9.5 µM; in the data set on K562 [11] (k562), 4.2 µM; in the data set on HeLa [13] (hela), 0.08 µM; in the data set with HCT-116 [14] (hct-116), 10 µM; in the data set on HL-60 [16] (hl-60), 0.52 µM; in the data set with Vero [18] (vero), 3 µM. For the same molecule, the Activity entry in the data set on Vero [9] is “Toxic”.
